Source: patent US20060287395A1, “Pharmaceutical composition for the therapy of lower urinary tract symptoms” (ASTELLAS PHARMA INC., priority 1999, published 2006)
Counter-ions that a name gives are not always drawn.

Assays:
[1] = system: patients suffering from lower urinary tract symptoms; assay: Clinical test to patients suffering from lower urinary tract symptoms (four-week test); format: in vivo, human; conditions: total score for subjective symptom and QOL index
Description: A clinical test was carried out under the following conditions using the patients suffering from lower urinary tract symptoms. (cf. Chapter 1: Indexes for Evaluation of Prostatic Hypertrophy in “Guideline for Clinical Test for Urinary Disturbance” published by Iyaku Tosho Shuppan) Subjects: four patients diagnosed as lower urinary tract symptoms, i.e. urinary disturbance without clear organic or neurological abnormality in lower urinary tract (3 males and 1 female). Test drug and administering method:. One capsule containing 0.2 mg of tamsulosin hydrochloride was orally administered once daily after breakfast. Test period: four weeks (28 days) Observed items: Evaluations and measurements were made for the following items before and after the administration. (1) Total score for subjective symptoms Questioning was done to the patients for the following items and the total score was obtained. (2) QOL Index With regard to an index for quality of life (QOL), a questioning that “How do you think if the present urinary condition continues in future as well?” was done as a total diagnosis concerning the urinary disturbance and any of the following evaluations was collected.

[2] = system: patients suffering from lower urinary tract symptoms; assay: Clinical test to patients suffering from lower urinary tract symptoms (twelve-week test); format: in vivo, human; conditions: total score for subjective symptom, QOL index and test on functions
Description: A clinical test was carried out under the following conditions using the patients suffering from lower urinary tract symptoms. Subjects: eighteen patients diagnosed as lower urinary tract symptoms, i.e. urinary disturbance without clear organic or neurological abnormality in lower urinary tract (15 males and 3 female, age: 57.2±14.2). Test drug and administering method: One capsule containing 0.2 mg of tamsulosin hydrochloride was orally administered once daily after breakfast for four weeks and, after that, the dose after 4 weeks was controlled in consideration of the following criterion, and the dose was orally administered once daily after breakfast. [table] Test period: twelve weeks (84 days) (4 weeks (28 days) for 8 males) Observed items: Evaluations and measurements were made for the following items before and after the administration. (1) Total score for subjective symptoms Total scores for the following <1>˜<7> before and after the administration were obtained in the same way as in Test Example 1. <1> Feel of residual urine, <2> Urination within two hours, <3> Break of urinary stream, <4> Urgency, <5> Force of urinary stream, <6> Straining upon urination and <7> Frequency of urination at night. (2) QOL Index “How do you think if the present urinating state continues in future as well?” (3) Test on Functions <1> maximum urinary stream rate <2> average urinary stream rate

CCOc1ccccc1OCCN[C@H](C)Cc1ccc(OC)c(S(N)(=O)=O)c1 [tamsulosin hydrochloride, (R)(−)-5-[2-[[2-(o-ethoxyphenoxy)ethyl]amino]propyl]-2-methoxybenzene-sulfonamide]
Overall conclusion on efficacy as therapeutic agent for lower urinary tract symptoms [1]: confirmed to be effective
Overall conclusion on efficacy as therapeutic agent for lower urinary tract symptoms [2]: confirmed to be effective
